Experimental data published in patent publication US8067372B2, “Modulation of angiogenesis by A-beta peptide fragments” (Alzheimer's Institute of America, Inc., priority 2005, dated 2011).
“Also recorded” adds a separate entry of the source.

Assays:
[1] = test system: Human Umbilical Vein Endothelial Cells (HUVEC); test: Capillary tube formation assay (HUVEC on Matrigel); assay type: cell-based; settings: for Total length of capillary tubes (percentage of control): ANOVA main effect: 0, 1, 5 and 10 μM doses
Protocol: All in-vitro experiments were performed using primary Human Umbilical Vein Endothelial Cells (HUVEC) at passages 3-4, purchased from American Tissue Type Culture Collection (ATCC, VA). Cells were cultured in F12K Medium (ATCC, VA) supplemented with 10% fetal bovine serum (Invitrogen, CA), 0.1 mg/ml Heparin and 0.03 mg/ml endothelial cell growth supplement (Sigma-Aldrich, MO). At all times, cells were maintained in a sterile cell culture incubator at 37° C. and 5% CO2.
HUVEC (7.5×10^4 cells/ml) in 500 μl of medium were seeded in 24-well plates, on top of a layer of Matrigel basement membrane matrix (Invitrogen, CA) in F12K medium (ATCC, VA) containing 4% serum (Invitrogen, CA), 0.1 mg/ml Heparin and 0.03 mg/ml endothelial cell growth supplement (Sigma-Aldrich, MO). Cells were incubated with peptides (or control conditions) for 24 hours. Control wells received the same volume of vehicle (DMSO) used to dilute the peptides. Network formation experiments were performed in triplicate, and at least 2 randomly chosen fields were photographed for each well using a 4× objective. Capillary length was measured using Image Pro Plus software (Media Cybernetic, Inc., MD).

[2] = test system: VEGF-induced angiogenesis; test: Rat corneal micropocket assay; assay type: in vivo; settings: 0.5, 2.5 and 5.0 μg with 200 ng VEGF; 7 days
Protocol: The vascular growth response was measured seven days post implantation. The lengths and widths of vessel outgrowths were measured and the angiogenic index (AI) calculated using the formula L×W=AI. Rats were perfused with colloidal carbon, eyes enucleated and fixed in 10% buffered formalin. Corneas were removed under an Olympus dissecting microscope and mounted on glass slides with Crystal Mount media.

[3] = tested at 1, 5 and 10 μM, 24 hours

| Substance | Total length of capillary tubes (percentage of control): ANOVA main effect [1] | anti-angiogenic activity in capillary network formation [1, 3] | other results |
| --- | --- | --- | --- |
| DAEFRHDSGYEVAAQALVFFAEDVGSNK (listed as Homo sapiens) [Aβ1-28 Mutant 2] | no main effect | – | – |
| DAEFRHDSGYEVGGQGLVFFAEDVGSNK (listed as Homo sapiens) [Aβ1-28 Mutant 1] | no main effect | – | – |
| GSNKGAIIGLM (listed as Homo sapiens) [Aβ25-35] | – | not active | anti-angiogenic activity in capillary network formation ([1]; 5 μM): slightly active; anti-angiogenic activity in capillary network formation ([1]; 10 μM): not at 10 μM |
| HHHQKLVFF (listed as Homo sapiens) [Fragment 1] | significant main effect | – | inhibition of VEGF-induced angiogenesis in vivo (Angiogenic Index) [2]: appears antiangiogenic in vivo; Total length of capillary tubes (percentage of control): post hoc effect ([1]; 1, 5 and 10 μM, P<0.005): significant effects |
| LMVGGVVIA (listed as Homo sapiens) [Aβ34-42] | – | pro-angiogenic activity; also recorded: did not display any anti-angiogenic activity; also recorded: promoted angiogenesis in a dose dependent manner; also recorded: not active | – |
| LVFFAEDVGSNK (listed as Homo sapiens) [Aβ17-28] | – | did not display any anti-angiogenic activity; also recorded: not active | – |
| YEVHHQK (listed as Homo sapiens) [Aβ10-16] | – | did not display any anti-angiogenic activity; also recorded: inactive | – |
| YEVHHQKLVFFAEDVGSNKGAIIGLM (listed as Homo sapiens) [Aβ10-35] | – | most active | Total length of capillary tubes (percentage of control): post hoc difference from control ([1]; 5 and 10 μM doses, P<0.005, 24 hours, n≧8): significant differences |
| heparin [reference compound] | – | – | reversal of inhibition of capillary tube formation induced by Aβ1-42 ([1]; heparin 500 μg/ml and 1 mg/ml added with Aβ1-42, P<0.001 vs Aβ alone): effectively reverse; also recorded: effectively reversed inhibition; inhibition of angiogenesis (capillary tube formation) by heparin alone ([1]; heparin alone, 0.5 or 1 mg/ml): slight inhibition |
